Measured values as given in US12643886B2 (Ontario Institute for Cancer Research (OICR), priority 2021, dated 2026).

What was measured:
NUAK1 = biological target: T1, NUAK1 (Homo sapiens, UniProt O60285); assay: Counter-screen against NUAK1; type: biochemical
T1 sequence (O60285 1-661): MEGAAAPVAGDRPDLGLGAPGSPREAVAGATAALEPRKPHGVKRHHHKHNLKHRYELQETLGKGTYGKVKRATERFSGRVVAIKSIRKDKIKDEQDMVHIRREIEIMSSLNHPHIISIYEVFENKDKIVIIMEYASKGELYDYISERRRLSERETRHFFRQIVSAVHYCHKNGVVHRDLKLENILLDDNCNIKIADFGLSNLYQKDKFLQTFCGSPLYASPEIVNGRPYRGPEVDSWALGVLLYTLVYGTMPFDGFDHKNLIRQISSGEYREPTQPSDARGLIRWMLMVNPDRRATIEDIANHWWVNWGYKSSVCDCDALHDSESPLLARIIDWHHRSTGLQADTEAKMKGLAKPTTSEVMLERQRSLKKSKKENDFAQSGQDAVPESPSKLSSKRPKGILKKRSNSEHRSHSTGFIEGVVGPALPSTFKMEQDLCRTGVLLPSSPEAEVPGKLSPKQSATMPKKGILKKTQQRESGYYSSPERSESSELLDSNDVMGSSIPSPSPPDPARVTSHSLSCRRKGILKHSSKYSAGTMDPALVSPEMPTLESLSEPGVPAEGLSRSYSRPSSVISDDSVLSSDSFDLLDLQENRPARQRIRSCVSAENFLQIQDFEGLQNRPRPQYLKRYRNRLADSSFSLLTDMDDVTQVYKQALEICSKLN
Outline: (§1)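 Full-length recombinant NUAK2 incubated 40 min at room temperature in 8 mM MOPS pH 7.0, 0.2 mM EDTA, 10 mM magnesium acetate, 300 μM peptide substrate and 33P-ATP. Stopped with 0.5% phosphoric acid; filter-bound label counted by scintillation. IC50 reported as ranges; NUAK1 and Aurora A served as counter-screens.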

MDA-MB-231 cells = assay: Tumor cell growth inhibition assay (ATPlite, 5 days); type: cell-based; conditions: Homo sapiens, 120 h; breast tumor cell line MDA-MB-231, 5 days
Procedure: MDA-MB-231 cells were seeded into a 384-well plate at 1,000 cells/well in 50 μl medium (Alpha-MEM containing 10% FBS, […] Normocin, Invivogen and […] Gentamycin, Invitrogen). Plates were then incubated overnight for the cells to attach. An HP D300 digital dispenser was used to dose cells with DMSO or test compounds across a 16-point range of concentrations (high dose of 10 uM to low dose of 5 nM). Plates were incubated in a humidified 5% CO2 incubator at 37° C. After 5 days, plates were removed from the incubator and equilibrated to room temperature. An equal volume of ATPlite assay reagent was then added to each well, and samples processed according to manufacturer's instructions (Perkin Elmer). Luminescent signals were then measured using an Envision plate reader equipped with a US-Luminescence detector.

NUAK2 (h) = biological target: T2, NUAK2 (h) (Homo sapiens, UniProt Q9H093); assay: NUAK2 enzymatic assay (radiometric, Eurofins); type: biochemical; conditions: full-length recombinant enzyme
T2 construct: This assay was done radiometrically using full-length, recombinant enzyme; purchased Eurofins
T2 sequence (Q9H093 1-628): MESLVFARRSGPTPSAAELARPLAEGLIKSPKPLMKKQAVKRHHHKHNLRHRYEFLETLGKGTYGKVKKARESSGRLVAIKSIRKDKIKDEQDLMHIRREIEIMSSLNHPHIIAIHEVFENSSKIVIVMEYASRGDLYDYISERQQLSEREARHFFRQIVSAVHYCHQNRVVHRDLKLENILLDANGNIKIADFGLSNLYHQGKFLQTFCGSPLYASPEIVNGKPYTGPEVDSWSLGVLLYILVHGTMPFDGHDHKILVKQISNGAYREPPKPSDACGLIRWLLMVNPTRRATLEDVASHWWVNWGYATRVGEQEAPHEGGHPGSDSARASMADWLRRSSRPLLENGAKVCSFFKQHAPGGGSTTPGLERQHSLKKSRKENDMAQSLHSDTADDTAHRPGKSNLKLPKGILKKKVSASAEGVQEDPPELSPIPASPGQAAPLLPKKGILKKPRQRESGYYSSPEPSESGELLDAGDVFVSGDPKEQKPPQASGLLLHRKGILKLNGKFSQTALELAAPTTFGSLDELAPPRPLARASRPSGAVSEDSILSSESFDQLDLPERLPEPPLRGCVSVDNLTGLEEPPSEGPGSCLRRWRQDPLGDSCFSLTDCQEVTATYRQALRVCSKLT
Outline: as §1

Aurora A = biological target: T3, Aurora A (Homo sapiens, UniProt O14965); assay: Counter-screen against Aurora A; type: biochemical; conditions: read-out: AUR-A (IC50)
T3 sequence (O14965 1-403): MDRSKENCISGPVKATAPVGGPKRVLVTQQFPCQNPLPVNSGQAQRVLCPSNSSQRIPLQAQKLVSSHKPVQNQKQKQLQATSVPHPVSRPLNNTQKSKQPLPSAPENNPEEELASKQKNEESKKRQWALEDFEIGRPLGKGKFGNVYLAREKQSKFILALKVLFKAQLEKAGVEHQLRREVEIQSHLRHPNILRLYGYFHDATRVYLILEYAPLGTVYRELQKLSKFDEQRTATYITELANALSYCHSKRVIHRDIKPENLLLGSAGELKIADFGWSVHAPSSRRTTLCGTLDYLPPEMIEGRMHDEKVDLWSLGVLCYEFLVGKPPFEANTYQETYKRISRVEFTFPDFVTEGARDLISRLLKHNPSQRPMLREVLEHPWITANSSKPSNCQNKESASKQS
Outline: as §1

[1] = system: Clover-YAP expressing MDA-MB-231 cells; assay: Cell-based YAP/TAZ localization assay (live imaging of Clover-YAP); conditions: MDA-MB-231 breast cancer cell line, FIG. 1
Procedure: Compounds of the application were tested for their ability to inhibit localization of YAP/TAZ to the nucleus of cells using an assay generally described in Nature Communications, 2018, 9:3510. Live cell imaging of Clover-YAP expressing MDA-MB-231 cells was carried out using a custom WAVE-FX-X1 spinning disc confocal system (Quorum Technologies) with a modified Yokogawa CSU-X1 scanhead on an AxioObserver Z1 inverted microscope (Carl Zeiss) with a ×40 NA 1.2 Plan Apochromat (Carl Zeiss) objective. Cells were plated in a 35 mm glass-bottom dish (Mat-Tek, P35G-1.5-14-C) and were maintained in a stage-top incubator at 37° C. and 5% CO2 during imaging. Cells were cultured in phenol-red free RPMI medium (Thermo Fisher Scientific, 11835030) with 5% FBS and 200 nM SiR-DNA (Spirochrom, SC007) was added 1 h prior to imaging to visualize the nuclei. Localization of Clover-YAP was monitored every 10 min for 2 h. Volocity software was used for image acquisition and processing.

[2] = system: several cancer cell lines; conditions: PCR; cited from earlier work
[3] = system: several cancer cell lines; conditions: immunofluorescence; cited from earlier work

Molecule `CCN1CCN(C2CCN(c3ccc(Nc4ncc(C(F)(F)F)c(Nc5cccc6c5C(=O)NC6)n4)c(OC(F)F)c3)CC2)CC1` [Compound I-33, 7-((2-((2-(difluoromethoxy)-4-(4-(4-ethylpiperazin-1-yl)piperidin-1-yl)phenyl)amino)-5-(trifluoromethyl)pyrimidin-4-yl)amino)isoindolin-1-one] has an IC50 (NUAK1) of 11 to 100 nM, an IC50 (MDA-MB-231 cells) of 38 nM and an IC50 (NUAK2 (h)) of 11 to 100 nM. For the same molecule, the IC50 (Aurora A) was 101 to 1000 nM.
`O=C1NCc2cccc(Nc3nc(Nc4ccc(N5CCNCC5)cc4OC(F)F)ncc3C(F)(F)F)c21` [Compound I-34, 7-((2-((2-(difluoromethoxy)-4-(piperazin-1-yl)phenyl)amino)-5-(trifluoromethyl)pyrimidin-4-yl)amino)isoindolin-1-one] gave an IC50 (NUAK1) of 11 to 100 nM, an IC50 (MDA-MB-231 cells) of 32 nM and an IC50 (NUAK2 (h)) of 11 to 100 nM. For the same molecule, the IC50 (Aurora A) was over 1000 nM and the “Inhibition of nuclear localization of YAP/TAZ” value [1] was “potently inhibit nuclear localization of YAP/TAZ”.
`O=C1NCc2cccc(Nc3nc(Nc4ccc(N5C[C@@H]6C[C@H]5CN6)cc4OC(F)F)ncc3C(F)(F)F)c21` [Compound I-54, 7-((2-((4-((1S,4S)-2,5-diazabicyclo[2.2.1]heptan-2-yl)-2-(difluoromethoxy)phenyl)amino)-5-(trifluoromethyl)pyrimidin-4-yl)amino)isoindolin-1-one] gave an IC50 (NUAK1) of 11 to 100 nM, an IC50 (MDA-MB-231 cells) of 48 nM and an IC50 (NUAK2 (h)) of 0.1 to 10 nM. For the same molecule, the IC50 (Aurora A) was over 1000 nM.
Molecule `O=C1NCc2cccc(Nc3nc(Nc4ccc(N5C[C@H]6CNC[C@H]6C5)cc4OC(F)F)ncc3C(F)(F)F)c21` [Compound I-56, 7-((2-((2-(difluoromethoxy)-4-((3aR,6aS)-hexahydropyrrolo[3,4-c]pyrrol-2(1H)-yl)phenyl)amino)-5-(trifluoromethyl)pyrimidin-4-yl)amino)isoindolin-1-one] has an IC50 (NUAK1) of 11 to 100 nM, an IC50 (MDA-MB-231 cells) of 43 nM and an IC50 (NUAK2 (h)) of 11 to 100 nM. It also gave an IC50 (Aurora A) of 101 to 1000 nM.
With `O=C1NCc2cccc(Nc3nc(Nc4ccc(N5C[C@H]6CC[C@@H](C5)N6)cc4OC(F)F)ncc3C(F)(F)F)c21` [Compound I-59, 7-((2-((4-((1R,5S)-3,8-diazabicyclo[3.2.1]octan-3-yl)-2-(difluoromethoxy)phenyl)amino)-5-(trifluoromethyl)pyrimidin-4-yl)amino)isoindolin-1-one] the IC50 (NUAK1) was 11 to 100 nM, the IC50 (MDA-MB-231 cells) was 54 nM and the IC50 (NUAK2 (h)) was 0.1 to 10 nM. The IC50 (Aurora A) was 101 to 1000 nM.
In the case of `COc1cc(CN(C)C)ccc1Nc1ncc(Cl)c(Nc2cccc3c2C(=O)NC3)n1` [Compound I-63, 7-((5-chloro-2-((4-((dimethylamino)methyl)-2-methoxyphenyl)amino)pyrimidin-4-yl)amino)isoindolin-1-one], the IC50 (NUAK1) is reported as 11 to 100 nM, the IC50 (MDA-MB-231 cells) is reported as 398 nM and the IC50 (NUAK2 (h)) is reported as 0.1 to 10 nM. The IC50 (Aurora A) was 101 to 1000 nM.
For `CN1CCN(c2ccc(Nc3ncc4cc(C#N)c(=O)n(C5CCCC5)c4n3)cc2)CC1` [ON123300], the “YAP/TAZ transcriptional function (target gene expression)” value [2] is listed as “attenuates transcriptional function” and the YAP/TAZ nuclear localization [3] is listed as “a block of YAP/TAZ nuclear localization”.
In the case of `CCC(=O)Nc1cccc(Oc2nc(Nc3ccc(N4CCN(C)CC4)cc3OC)ncc2Cl)c1` [WZ4003], the “YAP/TAZ transcriptional function (target gene expression)” value [2] is given as “attenuates transcriptional function” and the YAP/TAZ nuclear localization [3] is given as “a block of YAP/TAZ nuclear localization”.
